According to patent US20110046067A1, “COMPOSITIONS COMPRISING HUMAN EGFR-siRNA AND METHODS OF USE” (Intradigm Corporation, priority 2007, published 2011):
Entries after “also recorded” stand apart in the source; their conditions may differ.

Tested on: hEGFR
Test: hEGFR dose titration in HT-29 cells (electroporation, hEGFR ELISA)
Format: cell-based, human
Conditions: 0.01-10 ug siRNA per 2×10^6 cells/200 μl, 48 hours post transfection
Method: The selected hEGFR-siRNA, hEGFR-25-1 and hEGFR-25-2, were tested for their capability of inhibiting hEGFR expression in a dose-dependent manner. The HT-29 cells were transfected with the EGFR-siRNAs in a range of 0.01-10 ug siRNA per 2×10^6 cells/200 μl using an electroporation mediated transfection method. The concentration of EGFR protein in the transfected HT-29 cells was measured at 48 hours post transfection using a hEGFR ELISA kit (R&D Systems, Inc.). The concentration of hEGFR protein was normalized against total cellular protein and the percentage of hEGFR inhibition was normalized against cells treated with a mock process without siRNA.
Two siRNA candidates, hEGFR-25-1 and hEGFR-25-2, were further tested for activity in a dose titration experiment.

| Substance | dose-dependent inhibition of hEGFR production |
| --- | --- |
| 5′-r(CACAGUGGAGCGAAUUCCUUUGGAA)-3′ (chain 2 UUCCAAAGGAAUUCGCUCCACUGUG; siRNA; RNA, backbone not given here) [hEGFR-25-1] | inhibited hEGFR expression in a dose-dependent manner; also recorded: dose-dependent inhibition |
| 5′-r(CGCAAAGUGUGUAACGGAAUAGGUA)-3′ (chain 2 UACCUAUUCCGUUACACACUUUGCG; siRNA; RNA, backbone not given here) [hEGFR-25-2] | inhibited hEGFR expression in a dose-dependent manner; also recorded: dose-dependent inhibition |
